Key:
[1] = system: s.c. Myc-CaP, B16 or YUMM1.7 tumors; test: Growth of subcutaneous tumors in mice under weekly Oxali and/or anti-PD-L1; format: in vivo, mouse
Experimental: (§1) FIGS. 7A-7G are pictorial and graphical diagrams showing that IFNγR2 induction is needed for the Oxali-potentiated response to anti-PDL1 therapy. […] After four treatment cycles, during which tumor size was measured, the mice were euthanized and analyzed. Significance was determined by Mann-Whitney and t-tests. Transient Cas9 expression was used to avoid any immune response to Cas9-molecules.
FIGS. 14A-14J are graphical diagrams showing that IFNγR2 expression is needed for platinoid-enhanced anti-PD-L1 responsiveness. […] After three cycles, the mice were euthanized, and tumor volume was determined. Significance was determined by t-tests (n=3). […] Tumor volume was determined using caliper. After three treatment cycles, the mice were euthanized and analyzed. Significance was determined by t-tests. Dots show averages and the brackets indicate±SEM (n=3). […] Each dot represents a mouse and each horizontal line indicates mean±SEM. […] Transient Cas9 expression was used to avoid any immune response to Cas9. Tumor growth was monitored using a caliper and analyzed using t-test. Each dot represents average and the brackets are SEM (n=3-5). […] Each dot represents a mouse and each horizontal line indicates the median.
The synergistic inhibition of Myc-CaP tumor growth by Oxali+anti-PD-L1 was attenuated by IFNγR2 ablation (FIGS. 7A and 14E). […]

[2] = system: histone acetyltransferase (HAT); test: HAT activity in lysates of treated cells
Myc-CaP cells [3] = test: Stress, DNA damage and type I IFN responses (IB, qRT-PCR)
Excerpt: CRISPR-Cas9 was used to ablate cyclic GMP-AMP synthase (cGAS, encoded by Mb21d1) and Ifnar2 (FIG. 11K).

HDACs = test: HDAC enzyme activity in extracts of treated cells; details: after 6 hours
Myc-CaP cells [4] = test: qRT-PCR of MHC-I component mRNAs in Myc-CaP cells; format: cell-based, mouse
Excerpt: (§2) Each dot represents an experiment and horizontal lines denote the median.

[5] = system: bone marrow (BM)-derived macrophages; test: Bone marrow derived macrophages, qRT-PCR and flow cytometry; format: cell-based, mouse
[6] = system: TRC2 cells expressing ovalbumin variants; details: Oxali-treated TRC2-N4 cells with OT-I CD8+ T cells
Experimental: FIGS. 2J-2L show TRC2 cells stable transfected with vectors expressing high, medium, and low affinity variants of Ovalbumin were incubated with 4 μM Oxali and/or CFSE-labeled OT-I cells for 72 hr and analyzed by flow cytometry using an antibody that recognizes [sequence] (SEQ ID NO: 24) bound to H-2Kb (FIG. 2J). The number of OT-I cells in each culture (FIG. 2K) and percentage of vital TRC2 cells (FIG. 2L) were determined by flow cytometry.

Myc-CaP cells [7] = test: Nuclear abundance of transcription factors (IB, flow cytometry); format: cell-based, mouse; details: 2 μM Oxali
[8] = system: Ifngr2, Tap1 and Psmb8 promoters; test: ChIP analysis of promoters
p300/CBP = test: p300 immunoblot and imaging; format: cell-based, mouse; details: Myc-CaP cells
Myc-CaP and TRC2 cells = test: Immunoblot of immunoproteasome subunits PSMB8 and PSMB9; details: low-dose
[9] = system: PC3, WM793, MIA PaCa-2, NSCLC and melanoma cell lines
Experimental: The stained cells were examined by indirect immunofluorescence. […] Surface HLA-ABC expression was determined by flow cytometry.

Myc-CaP cells [10] = test: Surface MHC (H-2Kq) expression by flow cytometry; format: cell-based, mouse; details: agent as named
Excerpt: as §2

s.c. Myc-CaP tumors = test: qRT-PCR of total tumor RNA from treated mice; format: in vivo, mouse; details: low-dose
Experimental: as §1
The synergistic inhibition of Myc-CaP tumor growth by Oxali+anti-PD-L1 was attenuated by IFNγR2 ablation (FIGS. 7A and 14E). […] Importantly, Psmb9, Tap1, and Nlrc5 induction by Oxali+anti-PD-L1 was almost completely abolished after IFNγR2 ablation in Myc-CaP cells (FIGS. 7C and 14F). Oxali+anti-PD-L1 induced MHC-I (H-2Kq and H-2Dd) surface expression by tumor cells, which was also abolished by IFNγR2 ablation (FIG. 7D). Oxali+anti-PD-L1 had no effect on surface MHC-I (H-2Kq) or PD-L1 expression by tumor-infiltrating CD11b^+ myeloid cells in vivo (FIGS. 14G and 14H). […] Thus, Oxali-induced upregulation of MHC-I genes in malignant cells is important for the final recognition and killing stage of the cancer-immunity cycle (Chen and Mellman, 2013) but has no role in ICI-induced CTL reinvigoration.

Myc-CaP cells [11] = test: Immunoblot of IRF1 and phosphorylated STAT1; format: cell-based, mouse
Excerpt: Protein loading was confirmed with tubulin antibodies.
The basis for the synergy between low-dose Oxali and IFNγ was investigated. […] Given the ability of Oxali to induce Ifngr2 mRNA expression, not only in Myc-CaP cells (FIG. 2D) but also in mouse and human melanoma cell lines (FIGS. 11C and 11D), it was postulated that the synergistic activation of IRF1 and STAT1 by Oxali plus IFNγ may be due to IFNγR2 induction.

[12] = Cell death in vitro at the low Oxali dose; format: cell-based; details: Oxali dose used in the experiments (low dose)
Excerpt: Thus, for purposed of this disclosure, the term “low dose” may include a non-ICD amount of a cytostatic agent or a platinoid.
In the past, Oxali was studied as a prototype of anticancer drugs that are capable of inducing immunogenic cell death (ICD) and T-cell priming (Galluzzi et al., 2015). However, the exact mechanism of ICD induction is poorly defined, and it is not clear whether Oxali and similar drugs exert their immunogenic activity solely via ICD. Other studies have reported Oxali and several other platinoids to function as inducers of the integrated stress response (ISR) (Bruno et al., 2017; Kepp et al., 2015). Nevertheless, the mechanism of ISR activation by platinoids and its relevance for their immunostimulatory activity is unknown. […] Oxali treatment also results in induction of Interferon gamma receptor 2 (IFNγR2), through NF-κB signaling, which potentiates the response of MHC-I-expressing cancer cells to IFNγ produced by CD8^+ T cells that have been reinvigorated by ICI administration.

[13] = system: Myc-CaP and TRAMP-C2 cells; test: RNA-seq of mouse PCa cells incubated with platinoids; format: cell-based
Experimental: FIGS. 1E-1G show total RNA from Myc-CaP cells incubated with indicated agents for 24 hr was subjected to RNA-seq. Top 20 hallmark gene sets were sorted by normalized enrichment score (NES). Immune-related gene sets are in blue (IFNγ signaling in light blue).
The top 20 hallmark gene sets sorted by normalized enrichment score (NES) are shown to depict the Oxali- and Cis-induced responses determined by GSEA analysis. Immune-related gene sets are colored blue (IFNγ signaling in light blue). […] Immune-related gene sets are in blue (IFNγ signaling in light blue).
To investigate how low-dose Oxali affects the PCa transcriptome, RNA sequencing (RNA-seq) was conducted on mouse PCa cells (Myc-CaP and TRAMP-C2) incubated with 2 μM of either Oxali or Cisplatin (Cis), a platinoid that, unlike Oxali, minimally enhances the response to PD-L1 blockade or ISP ablation (Pfirschke et al., 2016; Shalapour et al., 2015).

O=C1[O][Pt]2([NH][C@@H]3CCCC[C@H]3[NH]2)[O]C1=O [Oxali, oxaliplatin]
subcutaneous (s.c.) tumor growth ([1]; Myc-CaP, B16, or YUMM1.7, weekly treatment): little effect
tumor regression in vivo ([1]; low-dose Oxali alone, mouse models of PCa): did not cause tumor regression in vivo
increase in nuclear HAT activity ([2]; after 3 hr of Oxali addition): 4 fold
HAT enzymatic activity ([2]; within 3 hr): increased
eIF2α phosphorylation and CHOP expression (Myc-CaP cells [3]): induced
γH2AX, marker of DNA damage (Myc-CaP cells [3]): γH2AX induction
Ifna, Ifnb and IL1b expression (Myc-CaP cells [3]; 48 hr): increased
effect on HDACs in cytoplasm (HDACs): inhibitory effect
induction of Nlrc5, Psmb9, Tap1, Ifngr2, Tapasin, and Erap1 mRNAs (Myc-CaP cells [4]; 2 μM (Oxali and Cis) or 4 μM (Carbo), among the three platinoids): most efficient induction
Ifngr2 gene expression (Myc-CaP cells [4]; Myc-CaP cells): induced
effect of exogenous IFNγ on induction of MHC-I antigen presentation and processing genes by the platinoid (Myc-CaP cells [4]; plus IFNγ): strongly potentiated by exogenous IFNγ
MHC-I machinery component expression [5]: upregulated
MHC-II surface expression ([5]; Oxali alone): did not respond to Oxali alone
MHC-II expression in macrophages co-stimulated with IFNγ ([5]; plus IFNγ): potentiated MHC-II expression
OT-I T-cell activation and tumor cell killing [6]: led to T-cell activation, resulting in tumor cell killing
nuclear abundance of p65, NF-κB, CREB1, ATF3, P-ATM and JunB (Myc-CaP cells [7]): persistent increases
H3 acetylation (Lysine 14 and 27) of Psmb8 promotor region [8]: increased H3 acetylation
nuclear amount of p300 and acetylated p300/CBP (p300/CBP): enhanced the nuclear expression and acetylation of p300/CBP
PSMB8 and PSMB9 protein expression (Myc-CaP and TRC2 cells): induced
HLA-ABC surface expression ([9]; MIA PaCa-2 cells): induced HLA-ABC surface expression
Psmb9 and Ifngr2 induction, BRAF (V600E) versus activated NRAS melanoma cells ([9]; panel of human melanoma cell lines): much more responsive
surface expression of H-2Kq (Myc-CaP cells [10]): induced surface expression of H-2Kq
expression of Ifngr2, Psmb9, Tap1, and Nlrc5 mRNAs in tumors (s.c. Myc-CaP tumors): enhanced expression
IRF1 expression (Myc-CaP cells [11]; Oxali at 2 μM): induced
effect on IRF1 induction by IFNγ (Myc-CaP cells [11]; added to IFNγ): strongly potentiated
STAT1 phosphorylation (Myc-CaP cells [11]; added to IFNγ-treated cells): dramatically increased
cell death in vitro [12]: 10-15%
induction of gene set responsive to NF-κB-dependent TNF signaling ([13]; 2 μM, Myc-CaP): strongly induced
induction of IFNγ responsive gene set ([13]; 2 μM, compared with Cis): considerably stronger induction
induction of genes of the MHC-I antigen processing and presentation machinery ([13]; low-dose, Myc-CaP): strongly induced

Reference: US20210386828A1, “METHODS FOR ENHANCING CANCER IMMUNOTHERAPY” (The Regents of the University of California, priority 2018, published 2021)
